Results taken from publication PMC7308192 (Journal of biomolecular structure & dynamics, 2019).
Values joined by “and” are separate entries in the source; they are usually repeats but may differ in a detail not shown here. Identical values can stand only once. Like-named read-outs stand apart in the source and are kept apart here.

B1: Twinstrep-AtGPA1 (natural protein, Arabidopsis, UniProt P18064 1-383, looked up)
chain: MGLLCSRSRHHTEDTDENTQAAEIERRIEQEAKAEKHIRKLLLLGAGESGKSTIFKQIKLLFQTGFDEGELKSYVPVIHANVYQTIKLLHDGTKEFAQNETDSAKYMLSSESIAIGEKLSEIGGRLDYPRLTKDIAEGIETLWKDPAIQETCARGNELQVPDCTKYLMENLKRLSDINYIPTKEDVLYARVRTTGVVEIQFSPVGENKKSGEVYRLFDVGGQRNERRKWIHLFEGVTAVIFCAAISEYDQTLFEDEQKNRMMETKELFDWVLKQPCFEKTSFMLFLNKFDIFEKKVLDVPLNVCEWFRDYQPVSSGKQEIEHAYEFVKKKFEELYYQNTAPDRVDRVFKIYRTTALDQKLVKKTFKLVDETLRRRNLLEAGLL
B2: XLG2 C terminal Gα domain (residues from 435 to 861) (domain or fragment, Arabidopsis, UniProt C6KIE6 435-861, looked up)
chain: CAVFSLPVPPASSAVEPYDVPLYEQKMLNKLLLIGSEKGGATTIYKQARSLYNVSFSLEDRERIKFIIQTNLYTYLAMVLEAHERFEKEMSNDQSSGNVGDETSAKPGNSINPRLKHFSDWVLKEKEDGNLKIFPPSSRENAQTVADLWRVPAIQATYKRLRDTLPRNAVYFLERILEISRSEYDPSDMDILQAEGLSSMEGLSCVDFSFPSTSQEESLESDYQHDTDMKYQLIRLNPRSLGENWKLLEMFEDADLVIFCVSLTDYAENIEDGEGNIVNKMLATKQLFENMVTHPSLANKRFLLVLTKFDLLEEKIEEVPLRTCEWFEDFNPLISQNQTSRHNPPMAQRAFHYIGYKFKRLYDSILEPVNMRGRSFKPKLFVCQVSLESDTVDNALRYAREILKWHVEETSMFQEMSTTSIEASSSS

Key:
[1] = molecular target: T1, XLG2 (Arabidopsis thaliana, UniProt C6KIE6); test: Microscale thermophoresis; assay type: binding
T1 sequence (C6KIE6 435-861): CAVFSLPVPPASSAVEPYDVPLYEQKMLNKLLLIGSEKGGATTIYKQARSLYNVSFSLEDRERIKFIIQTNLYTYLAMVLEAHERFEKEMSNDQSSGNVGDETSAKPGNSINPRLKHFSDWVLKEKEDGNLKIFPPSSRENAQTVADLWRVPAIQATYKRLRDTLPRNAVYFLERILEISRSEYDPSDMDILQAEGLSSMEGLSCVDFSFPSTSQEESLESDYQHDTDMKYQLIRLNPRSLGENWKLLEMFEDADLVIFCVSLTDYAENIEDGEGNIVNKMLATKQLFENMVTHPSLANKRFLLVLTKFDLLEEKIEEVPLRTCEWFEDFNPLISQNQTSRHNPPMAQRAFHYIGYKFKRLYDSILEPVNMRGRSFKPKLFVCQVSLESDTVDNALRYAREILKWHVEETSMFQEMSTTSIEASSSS

[2] = molecular target: T2, AtGPA1 (Arabidopsis thaliana, UniProt P18064); test: Microscale thermophoresis; assay type: binding
T2 sequence (P18064 1-383): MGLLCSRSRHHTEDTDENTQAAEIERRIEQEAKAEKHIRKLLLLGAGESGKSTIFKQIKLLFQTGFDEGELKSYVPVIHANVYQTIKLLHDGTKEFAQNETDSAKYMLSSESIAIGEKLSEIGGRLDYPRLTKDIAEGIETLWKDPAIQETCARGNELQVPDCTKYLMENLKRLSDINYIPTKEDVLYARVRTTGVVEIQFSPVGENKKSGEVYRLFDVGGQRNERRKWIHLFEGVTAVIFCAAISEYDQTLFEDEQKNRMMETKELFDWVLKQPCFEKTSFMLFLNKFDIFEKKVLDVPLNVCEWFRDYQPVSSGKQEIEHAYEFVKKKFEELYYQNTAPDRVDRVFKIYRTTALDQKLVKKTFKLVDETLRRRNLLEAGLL

[3] = molecular target: animal G subunits; details: read-out: range of Kds reported for animal G subunits; ref Malinski, Zera, Angleson, & Wensel, 1996; cited from earlier work
[4] = molecular target: T2, AtGPA1; details: read-out: Kd for GTPγS binding to AtGPA1 using a radioactive ligand, ref Johnston, Willard, Kimple, Siderovski, 2008; cited from earlier work
[5] = molecular target: T3, Arabidopsis Gβγ dimer (AGB1/AGG1) (Arabidopsis, UniProt P49177 1-377; Q9FDX9 1-98); test: MST
T3 sequence (looked up) 1: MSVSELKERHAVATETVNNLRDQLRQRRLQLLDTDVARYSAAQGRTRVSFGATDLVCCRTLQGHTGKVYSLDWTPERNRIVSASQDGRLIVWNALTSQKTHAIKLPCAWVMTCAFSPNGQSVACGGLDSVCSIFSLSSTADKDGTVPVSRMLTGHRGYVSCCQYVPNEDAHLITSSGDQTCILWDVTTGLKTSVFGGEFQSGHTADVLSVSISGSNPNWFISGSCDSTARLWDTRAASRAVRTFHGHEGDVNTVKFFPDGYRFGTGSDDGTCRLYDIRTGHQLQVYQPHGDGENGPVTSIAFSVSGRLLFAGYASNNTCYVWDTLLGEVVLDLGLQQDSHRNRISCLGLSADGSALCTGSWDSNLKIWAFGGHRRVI
T3 sequence (looked up) 2: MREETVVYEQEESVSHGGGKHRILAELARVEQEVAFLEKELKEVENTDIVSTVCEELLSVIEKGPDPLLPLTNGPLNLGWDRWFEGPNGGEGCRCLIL

[6] = molecular target: B1; test: MST
[7] = molecular target: B2; test: MST
[8] = molecular target: B1; test: MST; remark: listed apart in the source
[9] = Kd, nucleotide binding to XLG2, MST, 25°C, in the presence of Mg2+
[10] = Kd, nucleotide binding to XLG2 in the presence of Ca2+, MST, Ca2+ instead of Mg2+
[11] = Kd, nucleotide binding to AtGPA1, MST, 25°C, polyHis-tagged AtGPA1

Nc1nc2c(ncn2[C@@H]2O[C@H](COP(=O)(O)OP(=O)(O)O)[C@@H](O)[C@H]2O)c(=O)[nH]1 [GDP, guanosine diphosphate]
affinity of XLG2 lower than of AtGPA1 ([1]; Kd XLG2 vs AtGPA1): ~ 6 fold | Kd [1, 9]: 177000 ± 33000 nM | Kd [1, 10]: ~28000 nM | Kd [2, 11]: 28000 ± 12000 nM

Nc1nc2c(ncn2[C@@H]2O[C@H](COP(=O)(O)OP(=O)(O)OP(O)(O)=S)[C@@H](O)[C@H]2O)c(=O)[nH]1 [GTPγS]
Kd [3]: 10 to 100 nM | affinity of XLG2 lower than that of AtGPA1 / canonical Gα subunits ([1]; Kd XLG2 vs AtGPA1, same conditions): 100 times | Kd ([1]; Kd, nucleotide binding to XLG2, MST, 25°C, Mg2+): 2350 ± 460 nM | Kd [1, 9]: ~2000 nM | Kd [1, 10]: ~186000 nM | Kd [2, 11]: ~21 nM and 21 nM | Kd [4]: ~2 nM

B1
Kd [5]: 2000 nM

B2
Kd [5]: 700 nM

B3: RGS+Ct (AtRGS1, residues from 284 to 459) (domain or fragment, Arabidopsis, UniProt Q8H1F2 284-459, looked up)
chain: KEEFRPVDPNEPLDKLLLNKRFRHSFMEFADSCYAGETLHFFEEVYEHGKIPEDDSIRRIYMARHIMEKFIVAGAEMELNLSHKTRQEILTTQDLTHTDLFKNALNEVMQLIKMNLVRDYWSSIYFIKFKEEESCHEAMHKEGYSFSSPRLSSVQGSDDPFYQEHMSKSSRCSSPG
Kd [6]: 125 nM | Kd [7]: 198 nM | Kd [8]: 67 nM

B4: RGS1-C domain: recombinant C-terminal RGS domain of Arabidopsis AtRGS1, residues from 284 to 459 (protein)
chain: KEEFRPVDPNEPLDKLLLNKRFRHSFMEFADSCYAGETLHFFEEVYEHGKIPEDDSIRRIYMARHIMEKFIVAGAEMELNLSHKTRQEILTTQDLTHTDLFKNALNEVMQLIKMNLVRDYWSSIYFIKFKEEESCHEAMHKEGYSFSSPRLSSVQGSDDPFYQEHMSKSSRCSSPG
modifications: left off: His, end not stated, cleaved | GST, end not stated, cleaved
affinity of XLG2 for RGS domain lower than AtGPA1 in its transition state ([1]; XLG2 vs AtGPA1 in transition state): about 2 times

B5: Gβγ: Arabidopsis Gβγ dimer (AGB1/AGG1), His tagged, expressed in Sf9 cells (protein)
chain 1: MSVSELKERHAVATETVNNLRDQLRQRRLQLLDTDVARYSAAQGRTRVSFGATDLVCCRTLQGHTGKVYSLDWTPERNRIVSASQDGRLIVWNALTSQKTHAIKLPCAWVMTCAFSPNGQSVACGGLDSVCSIFSLSSTADKDGTVPVSRMLTGHRGYVSCCQYVPNEDAHLITSSGDQTCILWDVTTGLKTSVFGGEFQSGHTADVLSVSISGSNPNWFISGSCDSTARLWDTRAASRAVRTFHGHEGDVNTVKFFPDGYRFGTGSDDGTCRLYDIRTGHQLQVYQPHGDGENGPVTSIAFSVSGRLLFAGYASNNTCYVWDTLLGEVVLDLGLQQDSHRNRISCLGLSADGSALCTGSWDSNLKIWAFGGHRRVI
chain 2: MREETVVYEQEESVSHGGGKHRILAELARVEQEVAFLEKELKEVENTDIVSTVCEELLSVIEKGPDPLLPLTNGPLNLGWDRWFEGPNGGEGCRCLIL
modifications: left off: His6, N-terminal, state not stated | His6, end not stated, state not stated
Kd ([1]; read-out: Kd, Gβγ binding to XLG2 Gα domain, MST, column head: Gα in GDP state): ~700 nM and 700 nM | Kd ([2]; read-out: Kd, Gβγ binding to AtGPA1, Gα in GDP state, MST, Gα in GDP state): ~2000 nM and 2000 nM
